Measurements: US12655116B2, “Substituted isophthalic acid diamides” (Bayer Aktiengesellschaft, priority 2020, dated 2026)
“And” between values parts separate entries of the source, which are not always exact repeats. Identical values can stand only once.

Columns and labels:
POLCO = assay: Pre-emergence herbicidal action against POLCO; assay type: in vivo, Polygonum convolvulus; conditions: Fallopia convolvulus, 504 h
In short: (§1)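 Sandy loam pots, seeds covered with soil, then surface-treated with WP or EC formulations at 600–800 l/ha water plus 0.2% wetting agent. Greenhouse, 3 weeks. Percent damage vs untreated controls.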

AVEFA = assay: Pre-emergence herbicidal action against AVEFA; assay type: in vivo, Avena fatua; conditions: Avena fatua, 504 h; 80 g/ha, pre-emergence
In short: as §1

PHBPU [1] = assay: Pre-emergence herbicidal action against PHBPU; assay type: in vivo, Pharbitis purpurea; conditions: Ipomoea purpurea, 504 h, dosage 80 g/ha
In short: as §1

AMARE [2] = assay: Post-emergence herbicidal action against AMARE; assay type: in vivo, Amaranthus retroflexus; conditions: 20 g/ha, visual assessment about 3 weeks after treatment, 100% = plants have died, 0% = like control plants
In short: (§2)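 Visual % rating (0% = as untreated, 100% = dead) ~3 wk after spraying one-leaf-stage plants grown in sandy loam; WP/EC in water at 600–800 l/ha, 0.2% wetting agent.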

DIGSA [3] = assay: Post-emergence herbicidal action against DIGSA; assay type: in vivo, Digitaria sanguinalis; conditions: Digitaria sanguinalis, 504 h
In short: as §2

SETVI [4] = assay: Pre-emergence herbicidal action against SETVI; assay type: in vivo, Setaria viridis; conditions: Setaria viridis, 504 h; for pest or weed control at 80 g/ha: dosage 80 g/ha
In short: as §1

ECHCG [5] = assay: Pre-emergence herbicidal action against ECHCG; assay type: in vivo, Echinochloa crus-galli
In short: as §1

ABUTH [6] = assay: Post-emergence herbicidal action against ABUTH; assay type: in vivo, Abutilon theophrasti; conditions: visual assessment about 3 weeks after treatment vs untreated controls
In short: as §2

VIOTR [7] = assay: Pre-emergence herbicidal action against VIOTR; assay type: in vivo, Viola tricolor
In short: as §1

ALOMY [8] = assay: Post-emergence herbicidal action against ALOMY; assay type: in vivo, Alopecurus myosuroides; conditions: Alopecurus myosuroides, 504 h, dosage 20 g/ha, visual assessment about 3 weeks after treatment vs untreated controls
In short: as §2

PHBPU [9] = assay: Post-emergence herbicidal action against PHBPU; assay type: in vivo, Pharbitis purpurea; conditions: Ipomoea purpurea, 504 h
In short: as §2

ECHCG [10] = assay: Post-emergence herbicidal action against ECHCG; assay type: in vivo, Echinochloa crus-galli; conditions: Echinochloa crus-galli, 504 h, dosage 20 g/ha
In short: as §2

AMARE [11] = assay: Pre-emergence herbicidal action against AMARE; assay type: in vivo, Amaranthus retroflexus
In short: as §1

VERPE [12] = assay: Pre-emergence herbicidal action against VERPE; assay type: in vivo, Veronica persica; conditions: Veronica persica, 504 h, dosage 80 g/ha
In short: as §1

VIOTR [13] = assay: Post-emergence herbicidal action against VIOTR; assay type: in vivo, Viola tricolor; conditions: Viola tricolor, 504 h
In short: as §2

VERPE [14] = assay: Post-emergence herbicidal action against VERPE; assay type: in vivo, Veronica persica; conditions: Veronica persica, 504 h, 20 g/ha
In short: as §2

MATIN [15] = assay: Pre-emergence herbicidal action against MATIN; assay type: in vivo, Matricaria inodora
In short: as §1

ABUTH [16] = assay: Pre-emergence herbicidal action against ABUTH; assay type: in vivo, Abutilon theophrasti
In short: as §1

SETVI [17] = assay: Post-emergence herbicidal action against SETVI; assay type: in vivo, Setaria viridis
In short: as §2

MATIN [18] = assay: Post-emergence herbicidal action against MATIN; assay type: in vivo, Matricaria inodora; conditions: Tripleurospermum inodorum, 504 h
In short: as §2

ALOMY [19] = assay: Pre-emergence herbicidal action against ALOMY; assay type: in vivo, Alopecurus myosuroides; conditions: Alopecurus myosuroides, 504 h, pre-emergence
In short: as §1

DIGSA [20] = assay: Pre-emergence herbicidal action against DIGSA; assay type: in vivo, Digitaria sanguinalis
In short: as §1

STEME = assay: Pre-emergence herbicidal action against STEME; assay type: in vivo, Stellaria media
Description: Seeds of monocotyledonous and dicotyledonous weed plants and crop plants are laid out in sandy loam soil in wood-fiber pots and covered with soil. The compounds of the invention, formulated in the form of wettable powders (WP) or as emulsion concentrates (EC), are then applied to the surface of the covering soil in the form of an aqueous suspension or emulsion at a water application rate equivalent to 600 to 800 l/ha, with addition of 0.2% wetting agent. After the treatment, the pots are placed in a greenhouse and kept under good growth conditions for the trial plants. The damage to the test plants is scored visually after a test period of 3 weeks by comparison with untreated controls (herbicidal activity in percent (%): 100% activity=the plants have died, 0% activity=like control plants). […] The tables below illustrate, in an illustrative manner, the post-emergence herbicidal action of the compounds of the invention, the herbicidal activity being stated in percent.

[21] = Abutilon theophrasti, 504 h, dosage 20 g/ha
[22] = Amaranthus retroflexus, 504 h, 20 g/ha, scored visually after 3 weeks vs untreated controls, 100% = plants have died, 0% = like control plants
[23] = Amaranthus retroflexus, 504 h, 80 g/ha, scored visually after 3 weeks vs untreated controls, 100% = plants have died, 0% = like control plants
[24] = Abutilon theophrasti, 504 h, 80 g/ha, scored visually after 3 weeks vs untreated controls (100% = plants have died, 0% = like control plants)
[25] = 80 g/ha, scored visually after 3 weeks vs untreated controls (100% = plants have died, 0% = like control plants)
[26] = Digitaria sanguinalis, 504 h, dosage 80 g/ha

Compound CCNC(=O)c1c(C(F)F)ccc(C(=O)Nc2nnnn2CC)c1CC [Example 2-278] has a pest or weed control at 20 g/ha (POLCO; dosage 20 g/ha) of 80%, a pest or weed control at 80 g/ha (POLCO; dosage 80 g/ha) of 80% and a pest or weed control at 80 g/ha (AVEFA) of 90%. It also gave a pest or weed control at 80 g/ha (PHBPU [1]) of 90%, a pest or weed control at 20 g/ha (AMARE [2]; Amaranthus retroflexus, 504 h) of 100% and a pest or weed control at 5 g/ha (DIGSA [3]; 5 g/ha) of 90%. For the same compound, the pest or weed control at 20 g/ha (DIGSA [3]; 20 g/ha) was 90%, the pest or weed control at 80 g/ha (SETVI [4]) was 100% and the pest or weed control at 80 g/ha (ECHCG [5]; Echinochloa crus-galli, 504 h, 80 g/ha) was 100%. The pest or weed control at 5 g/ha (ABUTH [6]; Abutilon theophrasti, 504 h, dosage 5 g/ha) was 80%, the pest or weed control at 20 g/ha (ABUTH [6]; [21]) was 90% and the pest or weed control at 20 g/ha (VIOTR [7]; Viola tricolor, 504 h, dosage 20 g/ha) was 100%. For the same compound, the pest or weed control at 80 g/ha (VIOTR [7]; Viola tricolor, 504 h, dosage 80 g/ha) was 100%, the pest or weed control at 20 g/ha (ALOMY [8]) was 80% and the pest or weed control at 5 g/ha (PHBPU [9]; dosage 5 g/ha) was 80%. The pest or weed control at 20 g/ha (PHBPU [9]; dosage 20 g/ha) was 90%, the pest or weed control at 20 g/ha (ECHCG [10]) was 90% and the pest or weed control at 20 g/ha (AMARE [11]; [22]) was 100%. For the same compound, the pest or weed control at 80 g/ha (AMARE [11]; [23]) was 100%, the pest or weed control at 80 g/ha (VERPE [12]) was 100% and the pest or weed control at 5 g/ha (VIOTR [13]; 5 g/ha) was 90%. It also gave a pest or weed control at 20 g/ha (VIOTR [13]; 20 g/ha) of 90%, a pest or weed control at 20 g/ha (VERPE [14]) of 100% and a pest or weed control at 20 g/ha (MATIN [15]; Tripleurospermum inodorum, 504 h, dosage 20 g/ha) of 100%. For the same compound, the pest or weed control at 80 g/ha (MATIN [15]; Tripleurospermum inodorum, 504 h, dosage 80 g/ha) was 100%, the pest or weed control at 80 g/ha (ABUTH [16]; [24]) was 100% and the pest or weed control at 20 g/ha (ABUTH [16]; Abutilon theophrasti, 504 h, dosage 20 g/ha, scored visually after 3 weeks vs untreated controls, 100% = plants have died, 0% = like control plants, read-out: Pre-emergence action against ABUTH (herbicidal activity in percent)) was 100%. It also gave a pest or weed control at 5 g/ha (SETVI [17]; Setaria viridis, 504 h, dosage 5 g/ha) of 80%, a pest or weed control at 20 g/ha (SETVI [17]; Setaria viridis, 504 h, dosage 20 g/ha) of 90% and a pest or weed control at 5 g/ha (MATIN [18]; dosage 5 g/ha) of 90%. It also gave a pest or weed control at 20 g/ha (MATIN [18]; dosage 20 g/ha) of 90%, a pest or weed control at 80 g/ha (ALOMY [19]; [25]) of 90% and a pest or weed control at 20 g/ha (ALOMY [19]; 20 g/ha, scored visually after 3 weeks, 100% = plants have died, 0% = like control plants) of 80%. It also gave a pest or weed control at 20 g/ha (DIGSA [20]; Digitaria sanguinalis, 504 h, dosage 20 g/ha) of 100% and a pest or weed control at 80 g/ha (DIGSA [20]; [26]) of 100%.
Work on CC(=O)NC(=O)c1c(C(F)(F)F)ccc(C(=O)Nc2nnc(C)o2)c1Cl [Example 6-252] yielded a pest or weed control at 80 g/ha (SETVI [4]) of 90%, a pest or weed control at 320 g/ha (SETVI [4]; dosage 320 g/ha) of 90% and a pest or weed control at 320 g/ha (ECHCG [5]; Echinochloa crus-galli, 504 h, 320 g/ha) of 90%. For the same compound, the pest or weed control at 20 g/ha (ABUTH [6]; [21]) was 80%, the pest or weed control at 80 g/ha (ABUTH [6]; Abutilon theophrasti, 504 h, dosage 80 g/ha) was 100% and the pest or weed control at 320 g/ha (STEME; Stellaria media, 504 h, dosage 320 g/ha) was 90%. It also gave a pest or weed control at 20 g/ha (AMARE [11]; [22]) of 80%, a pest or weed control at 80 g/ha (AMARE [11]; [23]) of 90% and a pest or weed control at 320 g/ha (AMARE [11]; Amaranthus retroflexus, 504 h, 320 g/ha, scored visually after 3 weeks, 100% = plants have died, 0% = like control plants) of 90%. For the same compound, the pest or weed control at 80 g/ha (ABUTH [16]; [24]) was 80%, the pest or weed control at 320 g/ha (ABUTH [16]; Abutilon theophrasti, 504 h, Dosage: 320 g/ha, scored visually after 3 weeks, 100% = plants have died, 0% = like control plants) was 90% and the pest or weed control at 80 g/ha (DIGSA [20]; [26]) was 90%. For the same compound, the pest or weed control at 320 g/ha (DIGSA [20]; Digitaria sanguinalis, 504 h, dosage 320 g/ha) was 90%.
For CCc1c(C(=O)Nc2ncnn2C)ccc(C(F)(F)F)c1C(=O)NC1CC1 [Example 4-212], the “Post-emergence action at 20 g/ha against AMARE in %” value (AMARE [2]) was 80%, the “Pre-emergence action against ECHCG in %” value (ECHCG [5]; 80 g/ha) was 80% and the “Post-emergence action against ABUTH in %” value (ABUTH [6]; dosage 20 g/ha) was 80%. The “Pre-emergence action against VIOTR in %” value (VIOTR [7]; dosage 80 g/ha) was 90%, the “Pre-emergence action against STEME in %” value (STEME; dosage 80 g/ha) was 90% and the “Pre-emergence action against AMARE in %” value (AMARE [11]; 20 g/ha, scored visually after 3 weeks vs untreated controls, 100% = plants have died, 0% = like control plants) was 90%. For the same compound, the “Pre-emergence action against AMARE in %” value (AMARE [11]; [25]) was 90%, the “Pre-emergence action against MATIN in %” value (MATIN [15]; dosage 20 g/ha) was 80% and the “Pre-emergence action against MATIN in %” value (MATIN [15]; dosage 80 g/ha) was 80% and 90%. The “Pre-emergence action against ABUTH (herbicidal activity)” value (ABUTH [16]; [25]) was 90%, the “Post-emergence action against SETVI in %” value (SETVI [17]; dosage 20 g/ha) was 80% and the “Pre-emergence action against DIGSA in %” value (DIGSA [20]; dosage 20 g/ha) was 80%. For the same compound, the “Pre-emergence action against DIGSA in %” value (DIGSA [20]; dosage 80 g/ha) was 90%.
